Results on two compounds are retold here after US20230174584A1, “Antibiotic Compounds” (priority 2019, published 2023).

Common to all, as to experiment: MIC assay
Holding throughout (type): cell-based, Enterococcus faecium

In one assay the test system is E. faecium E0013. Conditions: Enterococcus faecium, E0013. Put shortly:
(§1)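 CLSI broth microdilution in TSB + 0.002% polysorbate 80, 10^6 CFU/mL inoculum, 2-fold compound dilutions, 24 h at 37° C with shaking (600 rpm). VISA, VRSA and Enterococcus inocula grown to 0.5 McFarland before dilution; vancomycin-sensitive S. aureus by direct colony suspension. MIC (μg/mL) as median of ≥ triplicates.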

A further assay relates to E. faecium E0072. Conditions: Enterococcus faecium, E0072. Put shortly: as §1
The subject of the next assay is E. faecium E0300. Conditions: Enterococcus faecium, E0300. In a few lines: as §1
Another assay has as its system E. faecium E0333. Conditions: Enterococcus faecium, E0333. Put shortly: as §1
The next assay has as its system E. faecium E0506. Particulars: Enterococcus faecium, E0506. Put shortly:
as §1

The subject of another assay is E. faecium E1130. Particulars: Enterococcus faecium, E1130. Put shortly: as §1
The test system of a further assay is E. faecium E1679. Conditions: Enterococcus faecium, E1679. In a few lines: as §1
In the next assay the test system is E. faecium E1763. Conditions: Enterococcus faecium, E1763. In a few lines:
as §1

In another assay the test system is E. faecium E2297. Conditions: Enterococcus faecium, E2297. In a few lines:
as §1

Another assay concerns E. faecium E2365. Conditions: Enterococcus faecium, E2365. In a few lines:
as §1

The test system of a further assay is E. faecium E2373. Conditions: Enterococcus faecium, E2373. Put shortly:
as §1

The next assay deals with E. faecium E7319. Conditions: Enterococcus faecium, E7319. Put shortly:
as §1

Another assay has as its system E. faecium E7329. Conditions: Enterococcus faecium, E7329. Put shortly:
as §1

Another assay relates to E. faecium E7401. Particulars: Enterococcus faecium, E7401. In a few lines:
as §1

Another assay has as its system E. faecium E7403. Conditions: Enterococcus faecium, E7403. In a few lines:
as §1

The test system of the next assay is E. faecium E7424. Particulars: Enterococcus faecium, E7424. Put shortly:
as §1

Another assay relates to E. faecium E7464. Particulars: Enterococcus faecium, E7464. Put shortly:
as §1

In the next assay the test system is E. faecium E8218. Conditions: Enterococcus faecium, E8218. In a few lines:
as §1

The next assay concerns E. faecium E8235. Particulars: Enterococcus faecium, E8235. Put shortly:
as §1

The test system of another assay is E. faecium E980. Particulars: Enterococcus faecium, E980. In a few lines:
as §1

A further assay relates to E. faecium EO321. Conditions: Enterococcus faecium, EO321. In a few lines: as §1

SMILES strings stand for the structures. In brackets after ≈: the same amount, converted by molar mass. A value given as a limit tells only on which side of the number the result lay.

In general, MIC refers to the lowest concentration that inhibits growth of the organism.

For the compound `CCCCCCCCCCNCCN[C@@]1(C)C[C@H](O[C@H]2[C@H](Oc3c4cc5cc3Oc3ccc(cc3Cl)[C@@H](O)[C@@H](NC(=O)[C@@H](CC(C)C)NC)C(=O)N[C@@H](CC(N)=O)C(=O)N[C@H]5C(=O)N[C@H]3C(=O)N[C@H](C(=O)N[C@H](C(=O)O)c5cc(O)c(CNCP(=O)(O)O)c(O)c5-c5cc3ccc5O)[C@H](O)c3ccc(c(Cl)c3)O4)O[C@H](CO)[C@@H](O)[C@@H]2O)O[C@@H](C)[C@H]1O` [Telavancin, reference compound], the minimum inhibitory concentration (MIC) with E. faecium E0013 was 4 µg/mL (≈ 2.28 µM); in the assay on E. faecium E0072, 2 µg/mL (≈ 1.14 µM); against E. faecium E0300 it was 8 µg/mL (≈ 4.56 µM); against E. faecium E0333, 8 µg/mL (≈ 4.56 µM); in the assay with E. faecium E0506 it was 4 µg/mL (≈ 2.28 µM); in the assay with E. faecium E1130 it was at most 0.008 µg/mL. Also, the minimum inhibitory concentration (MIC) with E. faecium E1679 was 16 µg/mL (≈ 9.11 µM); against E. faecium E1763 it was 1 µg/mL (≈ 0.57 µM); against E. faecium E2297 it was 4 µg/mL (≈ 2.28 µM); with E. faecium E2365, at most 0.008 µg/mL; in the assay with E. faecium E2373, 8 µg/mL (≈ 4.56 µM); against E. faecium E7319, 8 µg/mL (≈ 4.56 µM). Further, the minimal inhibitory concentration (MIC) against E. faecium E7329, in the assay with E. faecium E7401, against E. faecium E7403, in the assay on E. faecium E7424, against E. faecium E7464 and against E. faecium E8218 was at most 0.008 µg/mL throughout. Moreover, the MIC is at most 0.008 µg/mL in the assay on E. faecium E8235, 0.0156 µg/mL (≈ 0.0089 µM) against E. faecium E980 and 16 µg/mL (≈ 9.11 µM) with E. faecium EO321.

On to `CN[C@H](CC(C)C)C(=O)N[C@H]1C(=O)N[C@@H](CC(N)=O)C(=O)N[C@H]2C(=O)N[C@H]3C(=O)N[C@H](C(=O)N[C@H](C(=O)O)c4cc(O)cc(O)c4-c4cc3ccc4O)[C@H](O)c3ccc(c(Cl)c3)Oc3cc2cc(c3O[C@@H]2O[C@H](CO)[C@@H](O)[C@H](O)[C@H]2O[C@H]2C[C@](C)(N)[C@H](O)[C@H](C)O2)Oc2ccc(cc2Cl)[C@H]1O` [Vancomycin, reference compound], for which the MIC in the assay with E. faecium E0013, in the assay on E. faecium E0072, in the assay on E. faecium E0300, against E. faecium E0333, in the assay with E. faecium E0506 and with E. faecium E1130 was above 128 µg/mL each time. Further, the MIC against E. faecium E1679 is above 128 µg/mL; with E. faecium E1763, 128 µg/mL (≈ 88.3 µM); in the assay on E. faecium E2297, above 128 µg/mL; against E. faecium E2365, 16 µg/mL (≈ 11 µM); in the assay with E. faecium E2373, above 128 µg/mL; in the assay with E. faecium E7319, above 128 µg/mL. Further, the minimal inhibitory concentration (MIC) is 1 µg/mL (≈ 0.69 µM) against E. faecium E7329; 16 µg/mL (≈ 11 µM) in the assay on E. faecium E7401; 16 µg/mL (≈ 11 µM) against E. faecium E7403; 4 µg/mL (≈ 2.76 µM) against E. faecium E7424; 16 µg/mL (≈ 11 µM) against E. faecium E7464; 8 µg/mL (≈ 5.52 µM) against E. faecium E8218. Further, the minimal inhibitory concentration (MIC) was 16 µg/mL (≈ 11 µM) with E. faecium E8235, 0.5 µg/mL (≈ 0.345 µM) in the assay on E. faecium E980 and above 128 µg/mL with E. faecium EO321.
